Test results published in patent US20230134760A1, “CAR AND NRF2 DUAL ACTIVATOR AGENTS FOR CYCLOPHOSPHAMIDE-BASED AND DOXORUBICIN-BASED TREATMENTS OF CANCER” (priority 2020, published 2023).

Assays:
[1] = tested on: HO-1; assay: HO-1 expression in BT549 cells; assay type: cell-based; conditions: BT549, 10 μM, 24 hours
Description: Immortalized triple negative breast cancer cell lines MDA-MB-231 and BT549 were obtained from ATCC (Rockville, Md.). Additionally, the h9c2 cell line was purchased from ATCC (Rockville, Md.). […] Human iPSC-derived cardiomyocytes were maintained in Mtesr plus and supplemented according to protocol. These cells were treated for 2 hrs or an overnight as indicated. Following a 2 hr pretreatment, cells were co-treated with DOX at indicated concentrations for 6 or 22 hours. Following the overnight treatments, RNA or protein was isolated. HPH were seeded in collagen-coated 24 well plates and pretreated for 24 hrs. BT549 were seeded on inverted coverslips. After a 24 hr pretreatment, hepatocytes were co-administered as indicated and coverslips were inserted. The cell lines were used for less than 60 passages. After 24 h treatment, HPH, BT549, MDA-MB-231, and H9c2 cells were washed and a phenol-chloroform extraction was used to isolate total RNA with the TRIzol reagent (ThermoFisher, Rockford, Ill.). Reverse transcription was performed on extracted RNA (1 μg) to produce cDNA using the High Capacity cDNA Archive kit according to manufacturer's instructions (Applied Biosystems, Foster, Calif.). […] Quantification of expression changes was done by the 2^ΔΔCt method, normalizing to GAPDH as the housekeeping gene and determining the fold change compared to control values (n=3). […]

[2] = tested on: H9c2 cells; assay: Phosphorylated H2AX imaging, H9c2 cells from multi-organ co-culture; assay type: cell-based, rat; conditions: CPA/DOX + DL7076
Description: Additionally, HPH were cultured in collagen-coated 6-well plates and pre-treated as described in the previous co-culture system. BT549 and H9c2 cells were plated on similar modified coverslips 0.8×10^5 cells and allowed to attach for 24 hours during hepatocyte pre-treatment. […] Following pre-treatment, BT549 coverslips were inserted adjacent to H9c2 coverslips over the sandwich cultured HPH as depicted in FIG. 43a. […] Both BT549 and H9c2 cells were harvested at indicated time points and assess for viability, apoptosis, and DNA damage as detailed further. […] Cells were fixed using 4% paraformaldehyde in PBS for 15 minutes followed by permeabilization with 0.5% Triton-X 100 in PBS for an additional 15 minutes at room temperature. Prior to blocking with 5% Bovine Serum Albumin (BSA), 3 washes with PBS were done to remove excess Triton-X. Primary antibody to mouse anti-phospho-H2AX ([…], clone JBW301, Millipore, 1:500 dilution) was prepared in PBS with 3% BSA and 0.3% Triton-X 100 and incubated overnight. […] The coverslips were visualized at 10× magnification using fluorescence microscopy (Nikon Eclipse Ti) and the amount of phosphorylation was quantified as mean intensity using brightspot detection of quadruplet images of the whole well and normalized to the vehicle control (0.1% DMSO).

[3] = tested on: cleaved caspase-3; assay: Cleaved caspase-3 Western blot in H9c2 cardiomyocytes; assay type: cell-based, rat
Source text: Protein was harvested using cell lysis buffer (Cell Signaling Technology, Danvers, Mass.) with a complete protease inhibitor cocktail (Roche, Mannheim, Germany) prior to homogenizing via sonification. Homogenized protein from treated HPH, H9c2, BT549, and MDA-MB-231 cells were resolved on NuPage Novex Bis-Tris 4-12% gels (Life Technologies) or NuPage Novex Bis-Tris 12% gel and transferred through electrophoresis onto immobilon-P polyvinylidene difluoride (PVDF) membranes. Membranes were blocked with 5% BSA or 5% milk in Tris-Buffer saline with Tween 20 (TBST). Further, membranes were incubated with specific antibodies against human CYP2B6 (1:1000, Abcam), CYP3A4 (1:1000, Millipore Sigma), HO-1 (1:1000, Abcam), cleaved caspase-3 (1:1000 Cell Signaling Technologies), Nrf2 (1:1000, Abcam), TATA-Binding Protein (1:500, Santa Cruz) β-actin (1:3000, Millipore Sigma) at 4° C. overnight. Following overnight incubation, horseradish peroxidase goat anti-mouse or anti-rabbit IgG antibodies were used for secondary incubation. Membranes were developed using SuperSignal West Pico Chemiluminescent Substrate (Thermo Scientific) or Radiance Q (Azure). Two TNBC cell lines, cardiomyocytes, and HPH protein samples were isolated and resolved on a 4-12% or 12% SDS PAGE gel followed by electrophoretic transfer to a PVDF membrane. Membranes were probed 1:1000 for CYP2B6, CYP3A4, Nrf2, cleaved caspase 3, and HO-1 using β-actin (1:3000) or TBP (1:500) as a loading control.

[4] = tested on: hCAR; assay: hCAR luciferase reporter assay in HepG2 cells (hCAR1+A, CYP2B6-2.2k reporter); assay type: cell-based, human
Description: HepG2 cells were cultured in 24-well plates (1×10^5 cells/well) and transfected with either a hCAR1+A expression vector (30 ng/well), a CYP2B6-2.2k reporter (60 ng/well) reporter, and pRL-TK (10 ng/well) or a ARE expression vector using X-tremeGENE 9 DNA Transfection Reagent (Sigma-Aldrich). After an overnight transfection, cells were treated with a vehicle control (0.1% DMSO), RIF (10 μM), DL7076 (1 μM, 5 μM, and 10 μM) for 24 hours. Cell lysates were assayed for luciferase activity and normalized against the activity of the Renilla luciferase using a Dual-Luciferase Kit (Promega).

O=C(NCCN=C=S)c1c(-c2ccc3ccccc3c2)nc2sccn12 [DL7076, N-(2-Isothiocyanatoethyl)-6-(naphthalen-2-yl)imidazo[2,1-b]thiazole-5-carboxamide]
HO-1 induction [1]: 1.5 fold | H2AX phosphorylation (DNA damage) [2]: a measured decrease in histone H2A phosphorylation | cleaved caspase-3 expression with pretreatment ([3]; H9c2, DL7076 pretreatment + DOX 2.5 μM): notably reduced in a concentration dependent manner | cleaved caspase-3 expression, compound alone ([3]; H9c2, without DOX): no expression in cleaved caspase-3 | CAR1+A activation, luciferase reporter ([4]; HepG2, 10 μM, 24 hours, vs CITCO 1 μM): activate CAR1+A in a comparable manner to the prototypical CAR activator, CITCO | hCAR luciferase activity (efficacy among compound hybrids) ([4]; HepG2, screening, FIG. 37a): highest efficacy
